Data taken from patent US7776946B2, “Aqueous emulsion polymerization of fluorinated monomers using a fluorinated surfactant” (3M Innovative Properties Company, priority 2005, dated 2010).

Experiment: Determination of bio-accumulation: urinary clearance pharmacokinetic study in rats
Type: in vivo, male Sprague Dawley rats
Details: 73 micro Moles per kg body weight, oral gavage; for T½ (renal half-life): exponential least squares curve fitting of urine concentration (fluorine NMR); for % Recovery (96 h): parent compound in urine up to 96 h; for Compound-related Effects: clinical signs, gross necropsy at 96 hours post-dose
From the text: Animals we observed throughout the study for clinical signs of toxicity.

N.O=C(O)C(F)(F)C(F)(F)OC(F)(F)F [Compound 1, CF3—O—CF2—CF2—COONH4]
T½ (renal half-life): 11 h
% Recovery (96 h): 100%

N.O=C(O)C(F)(F)C(F)(F)OC(F)(F)C(F)(F)C(F)(F)F [Compound 3, C3F7—O—CF2—CF2—COONH4]
T½ (renal half-life): 12 h
% Recovery (96 h): 82%

N.O=C(O)C(F)(F)C(F)(F)OC(F)(F)C(F)(F)C(F)(F)C(F)(F)F [Compound 4, C4F9—O—CF2—CF2—COONH4]
Compound-related Effects: Hepatomegaly
T½ (renal half-life): 31 h
% Recovery (96 h): 42%

N.O=C(O)C(F)(F)C(F)(F)OC(F)(F)C(F)(F)F [Compound 2, C2F5—O—CF2—CF2—COONH4]
T½ (renal half-life): 10 h
% Recovery (96 h): 100%

N.O=C(O)C(F)(F)C(F)(F)C(F)(F)C(F)(F)C(F)(F)C(F)(F)C(F)(F)F [Compound C-1, C7F15COONH4, reference compound]
Compound-related Effects: Hepatomegaly
T½ (renal half-life): ~550 h
% Recovery (96 h): 6%
